These results are taken from PMC9519552, “Activation of the human insulin receptor by non-insulin-related peptides” (Nature Communications, 2022).

Like-named read-outs stand apart in the source and are kept apart here. Positions of bridges follow the written chain, without caps; N, C: chain ends. Residues, ends and D or L forms follow the SMILES beside them.

In general, Ki refers to the dissociation constant of the complex between target and ligand, obtained from inhibition or displacement. In general, IC50 refers to the concentration needed to halve the response being measured.

One assay deals with T1, human IR-A (holoIR-A) (Homo sapiens, UniProt P06213).
T1 construct: expressed in transfected cells; host or cells: HEK293 (ATCC #CRL-1573), stably transfected; membrane preparation
T1 sequence (P06213 28-1370 isoform P06213-2 limits assumed): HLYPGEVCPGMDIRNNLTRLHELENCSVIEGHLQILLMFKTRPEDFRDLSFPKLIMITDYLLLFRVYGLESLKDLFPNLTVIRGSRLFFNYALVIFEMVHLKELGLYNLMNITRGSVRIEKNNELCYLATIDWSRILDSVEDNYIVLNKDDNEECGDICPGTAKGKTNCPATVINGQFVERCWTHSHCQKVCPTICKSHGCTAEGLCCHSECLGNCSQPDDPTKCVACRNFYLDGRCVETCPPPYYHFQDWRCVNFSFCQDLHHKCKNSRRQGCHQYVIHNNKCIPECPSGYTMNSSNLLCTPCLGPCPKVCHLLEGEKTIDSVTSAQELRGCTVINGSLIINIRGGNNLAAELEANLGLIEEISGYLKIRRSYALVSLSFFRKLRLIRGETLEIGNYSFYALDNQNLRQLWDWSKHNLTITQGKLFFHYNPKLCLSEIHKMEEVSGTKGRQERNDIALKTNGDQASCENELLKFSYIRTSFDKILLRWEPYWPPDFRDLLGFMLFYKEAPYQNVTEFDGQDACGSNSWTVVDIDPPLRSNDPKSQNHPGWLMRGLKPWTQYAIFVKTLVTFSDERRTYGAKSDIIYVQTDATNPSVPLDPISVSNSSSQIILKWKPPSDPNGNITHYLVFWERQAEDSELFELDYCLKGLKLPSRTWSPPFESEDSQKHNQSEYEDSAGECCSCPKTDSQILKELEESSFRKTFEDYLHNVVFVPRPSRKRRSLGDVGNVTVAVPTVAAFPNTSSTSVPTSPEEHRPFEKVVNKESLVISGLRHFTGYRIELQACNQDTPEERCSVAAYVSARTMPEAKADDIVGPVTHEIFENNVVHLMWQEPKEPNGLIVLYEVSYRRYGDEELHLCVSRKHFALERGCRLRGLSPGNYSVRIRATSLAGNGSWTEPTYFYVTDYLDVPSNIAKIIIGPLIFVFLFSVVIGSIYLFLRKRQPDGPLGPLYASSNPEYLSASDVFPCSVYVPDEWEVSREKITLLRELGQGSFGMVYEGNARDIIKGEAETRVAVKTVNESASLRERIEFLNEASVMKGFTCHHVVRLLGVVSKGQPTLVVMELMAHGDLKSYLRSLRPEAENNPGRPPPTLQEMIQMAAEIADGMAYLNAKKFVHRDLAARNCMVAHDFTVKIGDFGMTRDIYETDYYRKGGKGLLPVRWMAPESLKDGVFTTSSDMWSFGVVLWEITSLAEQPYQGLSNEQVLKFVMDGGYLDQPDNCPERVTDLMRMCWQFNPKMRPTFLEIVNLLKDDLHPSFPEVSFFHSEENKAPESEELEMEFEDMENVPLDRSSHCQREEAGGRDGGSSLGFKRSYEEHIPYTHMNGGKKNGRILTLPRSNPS
T1 sequence (P06213 763-1382 partner limits assumed): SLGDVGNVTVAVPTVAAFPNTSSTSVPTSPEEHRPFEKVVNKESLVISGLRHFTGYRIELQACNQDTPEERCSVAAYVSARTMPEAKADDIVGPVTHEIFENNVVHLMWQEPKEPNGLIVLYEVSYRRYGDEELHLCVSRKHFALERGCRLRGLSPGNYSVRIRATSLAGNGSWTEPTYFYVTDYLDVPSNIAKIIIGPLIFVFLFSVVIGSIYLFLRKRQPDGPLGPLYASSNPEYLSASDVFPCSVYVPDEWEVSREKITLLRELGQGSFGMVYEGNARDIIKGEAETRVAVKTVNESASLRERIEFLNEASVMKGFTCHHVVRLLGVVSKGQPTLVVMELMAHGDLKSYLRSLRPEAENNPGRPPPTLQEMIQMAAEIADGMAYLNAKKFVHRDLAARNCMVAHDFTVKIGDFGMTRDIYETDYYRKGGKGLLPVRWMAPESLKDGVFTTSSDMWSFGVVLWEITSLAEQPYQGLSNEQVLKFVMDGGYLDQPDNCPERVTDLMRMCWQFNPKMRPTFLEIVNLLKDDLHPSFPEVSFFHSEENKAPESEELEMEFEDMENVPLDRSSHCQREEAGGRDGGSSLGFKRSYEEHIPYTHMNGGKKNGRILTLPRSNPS
The assay can be described thus: holoIR-A competitive radioligand binding assay (scintillation proximity assay). The following applies: for Ki: IM172N22(-) mutant peptide set; for reduction in ki for hIR-A on substitution: relative to control peptide IM172N22 devoid of N-terminal phenylacetylation. The procedure:
Cellular membranes were prepared from human embryonic kidney (HEK293; ATCC #CRL-1573) cells stably transfected with cDNA corresponding to human IR-A (holoIR-A) plus a C-terminal C9 tag ([…]) inserted within a pcDNA3.1 plasmid (Invitrogen), with positive clones selected with 800 μg mL^−1 neomycin and confirmed by Western Blot. Frozen cell pellets were thawed in ice-cold homogenization/resuspension buffer (50 mM Tris-HCl, pH 7.5) containing one cOmplete® protease inhibitor tablet with EDTA (Roche Diagnostics) per 50 mL buffer. Cells were homogenized with an overhead motor-driven Teflon-glass homogenizer using 15–20 strokes, followed by centrifugation at 1100 × g for 10 min at 4 °C. The supernatant was saved on ice, pellets were homogenized as before, and centrifuged at 1100 × g for 10 min at 4 °C. Both supernatants were combined and subsequently centrifuged at 35,000 × g for 60 min at 4 °C. The pellet was resuspended in buffer (4 to 5 mL g^−1 of starting cell paste) containing protease inhibitors and quick frozen in liquid nitrogen prior to storage at −80 °C. Protein concentration was determined using a BCA kit (Thermo Scientific) with bovine serum albumin (BSA) as standard.
The assays were performed with a scintillation proximity assay (SPA) method using polyvinyltoluene (PVT) wheat germ agglutinin-coupled SPA beads (Perkin Elmer). Assay buffer containing 50 mM Tris-HCl (pH 7.5), 150 mM NaCl, 0.1% w/v fatty-acid free BSA was used for all compound testing and reagent preparation. Ten-point concentration response curves with three-fold serial dilutions of test samples or controls were prepared in the assay buffer. […] Plates were sealed and shaken for 1 min on a plate shaker. Following a 10-h incubation and bead settling period at room temperature, radioactivity was determined using a MicroBeta Trilux scintillation counter (Perkin Elmer) and expressed as counts per minute (CPM). […] Samples were tested in three independent assay runs on three different days.
All test sample concentration responses were normalized to the control response and calculated as a percent of the maximal response after correcting for nonspecific binding as shown below: %Specific Inhibition=100%−[(CPM−MIN)/(MAX−MIN)×100%]
Percent specific binding (y-axis) was plotted vs log concentration of compound (x-axis) using Prism Version 9.3.1 (GraphPad Software). Individual measurements are provided as Source Data.
(SPA uses beads or plates that emit light when radiolabelled molecules are held near them.)

Assay [1] deals with T2, human holoIR-A over-expressed in HEK293 cells (Homo sapiens, UniProt P06213).
T2 construct: expressed in transfected cells; host or cells: HEK293, stably transfected
T2 sequence (P06213 28-1370 isoform P06213-2 limits assumed): as the sequence (P06213 28-1370 isoform P06213-2 limits assumed) above
T2 sequence (P06213 763-1382 partner limits assumed): as the sequence (P06213 763-1382 partner limits assumed) above
The assay is described as follows: Inhibition of hIR phosphorylation by peptides, co-incubated with BHI at its EC50 (ELISA). Format: cell-based. The following applies: for hIRA Phosph IC50 Run 1 / hIRA Phosph IC50 Run 2 / hIRA Phosph IC50 Run 3: inhibition of insulin-stimulated phosphorylation; for hIRA Phosph IC50 Run 1: BHI at its EC50, run 1; for hIRA Phosph IC50 Run 2: BHI at its EC50, run 2; for hIRA Phosph IC50 Run 3: BHI at its EC50, run 3; for IC50: read-out: hIRA Phosph IC50 Mean. The procedure:
Phosphorylation was quantified using an ELISA technique. Ninety-six well, flat-bottom microplates (Greiner Bio-One) were pre-coated with 2 µg mL^−1 anti-C9 monoclonal antibody (Rho 1D4; University of British Columbia)[27] in 20 mM sodium carbonate, pH 9.6, at 4 °C for overnight prior to the assay. On the assay day, plates were washed 3× with 0.1% Tween in 50 mM Tris Buffer Saline, pH 7.5 (TBST), and then blocked for greater than 1 h at room temperature (RT) with 1% BSA (Sigma) in TBST.
Stably transfected HEK293 cells over-expressing human holoIR-A containing a C-terminal C9 epitope tag ([…]), were plated at 6 × 10^4 cells per well serum-starved using 0.1% BSA in DMEM (Gibco) for overnight at standard tissue culture condition. […] After a 15-min incubation in lysis buffer at 4 °C, the lysate was transferred to anti-C9 antibody coated capture plate (Rho 1D4; University of British Columbia)[27]. […] After a 1 h incubation at room temperature, the secondary antibody was removed by washing 3× with TBST. Signal detection occurred with the addition of TMB, an HRP substrate (Pierce). After 5–10 min, the reaction was stopped by adding an equal volume of 2 M H2SO4, and the absorbance readings at 450 nm (A450) were recorded using a Envision plate reader (PerkinElmer). Samples were tested in three independent assay runs on three different days.
Percent specific response (y-axis) was plotted versus the log concentration of compound (x-axis) using Prism Version 9.3.1 (GraphPad Software). Individual measurements are provided as Source Data.
For orientation: ELISA stands for enzyme-linked immunosorbent assay.

Where [2] appears, read: mean of 3 runs, read-out: hIRA Binding Ki Mean.
Setting [3] is: run 1, read-out: hIRA Binding Ki Run 1.
The mark [4] stands for this setting: run 2, read-out: hIRA Binding Ki Run 2.
Where [5] appears, read: run 3, read-out: hIRA Binding Ki Run 3.

`CC[C@H](C)[C@H](NC(=O)[C@H](CCC(N)=O)NC(=O)[C@H](C)NC(=O)[C@H](C)NC(=O)[C@H](CCC(=O)O)NC(=O)[C@H](CCC(=O)O)NC(=O)[C@H](CCC(=O)O)NC(=O)[C@H](CC(C)C)NC(=O)[C@H](CO)NC(C)=O)C(=O)N[C@@H](CCC(=O)O)C(=O)N[C@H]1CSSC[C@@H](C(=O)N2CCC[C@H]2C(=O)N2CCC[C@H]2C(=O)N[C@@H](CO)C(=O)N[C@@H](CCC(=O)O)C(=O)N[C@@H](CO)C(N)=O)NC(=O)[C@H](CCCNC(=N)N)NC(=O)CNC(=O)[C@H](Cc2ccc(O)cc2)NC(=O)[C@H](C(C)C)NC(=O)[C@H](CCC(=O)O)NC1=O` [Peptide W6A] (Ac-SLEEEAAQIECEVYGRCPPSES-NH2; disulfide 11-17): the Ki on human IR-A (holoIR-A) (setting [2]) is greater than 4240 nM; on human IR-A (holoIR-A) (setting [3]), greater than 1210 nM; on human IR-A (holoIR-A) (setting [4]), greater than 4160 nM; at human IR-A (holoIR-A) (setting [5]), greater than 4240 nM. Moreover, the “binding of the mutant peptide to hIR-A (in words)” value at human IR-A (holoIR-A) (alanine substitution in IM172N22(-)) is recorded as “no detectable binding”. Also, the “hIRA Phosph IC50 Run 1” value in assay [1] was greater than 10000 nM. In assay [1], the “hIRA Phosph IC50 Run 2” value is listed as greater than 10000 nM. In addition, the “hIRA Phosph IC50 Run 3” value in assay [1] is reported as greater than 10000 nM. The IC50 in assay [1] was greater than 10000 nM.
For the compound `CC[C@H](C)[C@H](NC(=O)[C@H](CCC(N)=O)NC(=O)[C@H](C)NC(=O)[C@H](Cc1c[nH]c2ccccc12)NC(=O)[C@H](CCC(=O)O)NC(=O)[C@H](CCC(=O)O)NC(=O)[C@H](CCC(=O)O)NC(=O)[C@H](CC(C)C)NC(=O)[C@H](C)NC(C)=O)C(=O)N[C@@H](CCC(=O)O)C(=O)N[C@H]1CSSC[C@@H](C(=O)N2CCC[C@H]2C(=O)N2CCC[C@H]2C(=O)N[C@@H](CO)C(=O)N[C@@H](CCC(=O)O)C(=O)N[C@@H](CO)C(N)=O)NC(=O)[C@H](CCCNC(=N)N)NC(=O)CNC(=O)[C@H](Cc2ccc(O)cc2)NC(=O)[C@H](C(C)C)NC(=O)[C@H](CCC(=O)O)NC1=O` [Peptide S1A] (Ac-ALEEEWAQIECEVYGRCPPSES-NH2; disulfide 11-17), the Ki on human IR-A (holoIR-A) (setting [2]) was determined as 9.1 nM. The Ki on human IR-A (holoIR-A) (setting [3]) is listed as 8.71 nM. In addition, the Ki at human IR-A (holoIR-A) (setting [4]) is 8.06 nM. On human IR-A (holoIR-A) (setting [5]), the Ki is given as 10.5 nM. Besides, the “reduction in ki for hIR-A on substitution” value on human IR-A (holoIR-A) is recorded as “lower than 5 fold”. In assay [1], the “hIRA Phosph IC50 Run 1” value amounted to 119 nM, the “hIRA Phosph IC50 Run 2” value amounted to 127 nM, the “hIRA Phosph IC50 Run 3” value was found to be 121 nM and the IC50 came to 122 nM.
Consider `CC[C@H](C)[C@H](NC(=O)[C@H](CCC(N)=O)NC(=O)[C@H](C)NC(=O)[C@H](Cc1c[nH]c2ccccc12)NC(=O)[C@H](CCC(=O)O)NC(=O)[C@H](CCC(=O)O)NC(=O)[C@H](CCC(=O)O)NC(=O)[C@H](CC(C)C)NC(=O)[C@H](CO)NC(C)=O)C(=O)N[C@@H](CCC(=O)O)C(=O)N[C@H]1CSSC[C@@H](C(=O)N2CCC[C@H]2C(=O)N2CCC[C@H]2C(=O)N[C@@H](CO)C(=O)N[C@@H](CCC(=O)O)C(=O)N[C@@H](CO)C(N)=O)NC(=O)[C@H](CCCNC(=N)N)NC(=O)[C@H](C)NC(=O)[C@H](Cc2ccc(O)cc2)NC(=O)[C@H](C(C)C)NC(=O)[C@H](CCC(=O)O)NC1=O` [Peptide G15A] (Ac-SLEEEWAQIECEVYARCPPSES-NH2; disulfide 11-17), for which the Ki on human IR-A (holoIR-A) (setting [2]) is 99.3 nM. In addition, on human IR-A (holoIR-A) (setting [3]), the Ki stood at 97.0 nM. The Ki on human IR-A (holoIR-A) (setting [4]) stood at 117 nM. Also, the Ki on human IR-A (holoIR-A) (setting [5]) worked out at 83.7 nM. The “reduction in ki for hIR-A on substitution” value on human IR-A (holoIR-A) was found to be 10 fold. In assay [1], the “hIRA Phosph IC50 Run 1” value was 601 nM, the “hIRA Phosph IC50 Run 2” value was found to be 587 nM, the “hIRA Phosph IC50 Run 3” value stood at 624 nM and the IC50 worked out at 604 nM.
